Results on 1 compound are retold here after US20110306547A1, “LHRH - ANTAGONISTS IN THE TREATMENT OF FERTILITY DISORDERS” (Zentaris GmbH, priority 1996, published 2011).

In the assay the test system is patients undergoing COS/ART. Briefly: Phase II clinical trial of Cetrorelix in controlled ovarian stimulation / superovulation for assisted reproduction (COS/ART). In kind it is in vivo, human (patients). The protocol:
The results of a phase II clinical trial are shown in Table I. A total of […] patients were treated. […] During multiple dosing, the mean days of Cetrorelix application is 6 days. 25 babies were born by the end of May 1996 (7 following multiple doses; 18 following single/dual doses). [table] […] [table] 238 patients were treated with Cetrorelix by subcutaneous injection of Cetrorelix […]-Lyophilisat. 134 patients were treated with multiple doses and 104 patients with single or dual doses. The multiple doses are 0.25 mg/day or higher. The single dose was 3 mg or higher. […] Multiple doses were applied for 3 to a maximum of 10 days dependent on follicular development.

The mark [1] stands for this setting: multiple dose schedule, daily s.c., 3-7/14 days, phase II dose finding.
Where [2] appears, read: single dose, posology 1 day, phase II dose finding.

Where a SMILES comes first, the peptide text is derived from it. [ ]: non-standard residue; d: D form. dPhe(4-Cl) = N[C@H](Cc1ccc(Cl)cc1)C(=O)O; d2Nal = N[C@H](Cc1ccc2ccccc2c1)C(=O)O; dCit = NC(=O)NCCC[C@@H](N)C(=O)O; d3Pal = N[C@H](Cc1cccnc1)C(=O)O

Turning to `CC(=O)N[C@H](Cc1ccc2ccccc2c1)C(=O)N[C@H](Cc1ccc(Cl)cc1)C(=O)N[C@H](Cc1cccnc1)C(=O)N[C@@H](CO)C(=O)N[C@@H](Cc1ccc(O)cc1)C(=O)N[C@H](CCCNC(N)=O)C(=O)N[C@@H](CC(C)C)C(=O)N[C@@H](CCCNC(=N)N)C(=O)N1CCC[C@H]1C(=O)N[C@H](C)C(N)=O` [Cetrorelix] (Ac-[d2Nal][dPhe(4-Cl)][d3Pal]SY[dCit]LRP[dA]-NH2), the “premature LH surge (FIG. 1)” value (FIG. 1) was “absolute prevention of any premature LH surge”. The “pregnancies (number)” value (all phase II patients, both regimens) was 71 pregnancies. Also, under setting [1], the “minimal effective dose (Dose/Day)” value came out at 0.25 min. effect. dose mg and the “no effect dose (Dose/Day)” value came out at 0.10 no effect. dose mg. In addition, the “premature LH surge” value (multiple doses of 0.25 mg/day or higher) is on record as “No premature LH surge was seen in any patient”. Also, under “single dose of 3 mg or higher”, the “premature LH surge” value is listed as “No premature LH surge was seen in any patient”. Under setting [2], this compound gave a minimal effective dose of 3 min. effective dose mg and a no effect dose of 2 no effect. Dose mg. Also, the “babies born by the end of May 1996” value (total) is reported as 25.
